According to publication PMC11012289, “The Discovery of New Inhibitors of Insulin-Regulated Aminopeptidase by a High-Throughput Screening of 400,000 Drug-like Compounds” (International Journal of Molecular Sciences, 2024):
Where two headings read alike, the source gives them in different places.

What was measured:
IRAP [1] = target: T1, IRAP (Homo sapiens, UniProt Q9UIQ6); assay: Primary fluorescence IRAP assay (L-Leucine-7-amido-4-methylcoumarin cleavage); type: biochemical; conditions: for IC50 / Fluorescence pIC50: 37.5 µM L-Leucine-7-amido-4-methylcoumarin, 60 min RT, dose-response 20 µM-27.4 nM; for LipE: calculated from (pIC50Fluorescence − LogD); for LogEC50 (best-fit): log of concentration in M; for EC50: read-out: EC50 (best-fit)
T1 construct: The screen was performed with the soluble truncated IRAP enzyme; made in house
Excerpt: The primary biochemical assay was developed to measure the enzymatic activity of IRAP.
To ensure biochemically sound, optimal, robust, and affordable assay conditions for large-scale screening, several factors need to be considered. […] For both primary fluorescence and orthogonal absorbance assays, non-binding 1536-well assay plates were used, and 0.05% BSA was included in the assay buffer to minimize the issues associated with protein sticking to plastics. The substrate Km values were determined in two separate experiments using two different batches of IRAP protein. For this, the IRAP progress curve was monitored every 5 min for 2 h using an Envision multimode plate reader (PerkinElmer, Waltham, MA, USA).
First, 10 nL of test compounds (4 mM) or 100% DMSO was dispensed into the 1536-well assay plates using an Echo acoustic liquid handler (Beckman Coulter, Brea, CA, USA). Then, 2 μL of protein working solution (5 × 10^−4 mg/mL) was dispensed to the negative control (min effect) and compound wells (final well concentration 2.5 × 10^−4 mg/mL) using a Certus Flex liquid dispenser (Fritz Gyger AG, Thun, Switzerland) and 2 μL assay buffer to the positive control wells (max effect) using a FLEXdrop (PerkinElmer, Waltham, MA, USA).
Figure S9. Reference compounds in Fluorescence IRAP assay with different end volumes in 1536-well format.
mg/ml) and 2 or 4 µL L -Leucine-7-amido-4-methylcoumarin (f.a.c.
Plates were measured on the Envision every 10 minutes for 140 minutes (data
shown up to 2 hours). %Effect was calculated using no protein as MAX effect (assay buffer was added instead of IRAP).

IRAP [2] = target: T1, IRAP; assay: Orthogonal absorbance IRAP assay (L-Leucine para-nitroanilide cleavage); type: biochemical; conditions: for IC50 / Absorbance pIC50: 1 mM L-Leucine p-Nitroanilide, 120 min RT; for IC50: read-out: Absorbance pIC50 (converted)
Excerpt: The primary biochemical assay was developed to measure the enzymatic activity of IRAP. […] To establish an orthogonal assay, an alternative L-Leucine para-nitroanilide substrate was used, which IRAP turns over to L-Leucine and para-nitroaniline and is measurable by absorbance at 405 nm (Supplementary Figure S2B).
To ensure biochemically sound, optimal, robust, and affordable assay conditions for large-scale screening, several factors need to be considered. These include the final concentration of substrates, based on the determined substrate Km value; the assay kinetics and reaction linearity; achieving a minimal, rate limiting protein concentration; identifying optimal buffer additives and concentrations; the choice of assay plate type; the final assay volume per well; the stability of reagents; the magnitude and variance of the signal; and the potency and rank order of reference compounds. For both primary fluorescence and orthogonal absorbance assays, non-binding 1536-well assay plates were used, and 0.05% BSA was included in the assay buffer to minimize the issues associated with protein sticking to plastics. The substrate Km values were determined in two separate experiments using two different batches of IRAP protein. For this, the IRAP progress curve was monitored every 5 min for 2 h using an Envision multimode plate reader (PerkinElmer, Waltham, MA, USA). […] To evaluate if using substrate concentrations close to the determined Km values results in sufficient dynamic range within the linear range of the enzymatic reaction, Z′ and S/B were calculated for multiple time points up to 2.5 h in the presence and absence of reference compounds in both assays. The primary fluorescence assay reached an optimal Z′-value after 1 h when using 37.5 μM substrate (Supplementary Figure S5). For the absorbance, 2 h was required for the enzyme reaction time; however, using ~0.4 mM substrate was associated with increased assay variation and a poor Z′ (Supplementary Figure S6).
The orthogonal assay was performed in a black non-binding 1536-well plate (Corning 3728) and sealed with universal lids (Corning 3098). First, 20 nL of test compounds (4 mM) or 100% DMSO was dispensed into the 1536-well assay plates using an Echo acoustic liquid handler (Beckman Coulter). Then, 4 μL of protein working solution (5 × 10^−4 mg/mL) was dispensed to the negative control (min effect) and compound wells (final well concentration 2.5 × 10^−4 mg/mL) using the Certus Flex liquid dispenser (Fritz Gyger AG) and 4 μL assay buffer to the positive control wells (max effect) using the FLEXdrop (PerkinElmer). Next, 4 μL of 2 mM substrate working solution was dispensed into all wells using the FLEXdrop (final well concentration 1 mM). The assay plates were then centrifuged at 187.5× g for 30 s, incubated in the dark at RT for 120 min, and finally read on an Envision plate reader (PerkinElmer) (absorbance at 405 nm, 10 flashes per second). During the dose–response curve analysis in the orthogonal assay, 80 nL of compound (range 2.00 × 10^−3 M–2.74 × 10^−6 M) or 100% DMSO was dispensed into the assay plates using an Echo acoustic liquid handler (Beckman Coulter) with final well concentration range of 20 μM–27.4 nM compound and 1% DMSO.

[3] = set-up: method as in ELF screening history; conditions: ref ELF screening history, cited from earlier work; for Enzyme Active: number of ELF enzyme screens in which the compound was active; for Targets active: number of ELF screens in which the compound was active; for Enzyme Active %: share of ELF enzyme targets screened; for Targets Active %: share of all ELF targets screened
IRAP [4] = target: T1, IRAP; assay: Thermal shift (TSA) IRAP assay; type: binding; conditions: for ΔTm at 30 µM / TSA (∆°C), thermal shift of IRAP: screening hits at 30 µM, 1% DMSO
Excerpt: The Thermal shift assay (TSA) is a biophysical technique measuring protein thermal stability. The assay relies on a fluorescent dye that is quenched in an aqueous environment but fluoresces when de-solvated in non-polar environments, such as the hydrophobic pockets of proteins. The target protein is mixed with the dye and heated gradually until it becomes completely denatured; as it unfolds or melts, the dye binds to newly exposed hydrophobic regions of the protein, resulting in a significant increase in fluorescence emission detected by a PCR system. The melting temperature (Tm) is calculated from the protein melt curve, and changes in Tm (known as ΔTm) are correlated with changes in protein stability and ligand binding. […] For the TSA assay, vehicle (DMSO) or compound was dispensed into MicroAmp Endura optical qPCR plates at the desired volume using an Echo acoustic liquid handler. […] The plates were then centrifuged for 10 s at 1000 rpm and sealed with Clear PCR-compatible plate seals.

IRAP [5] = target: T1, IRAP; assay: Deselection fluorescence IRAP assay with 10 µM zinc; type: biochemical; conditions: 10 µM ZnSO4 in assay buffer; for IC50: read-out: Fluorescence + Zn pIC50 (converted)
Protocol: To prepare the assay buffer (50 mM Tris-HCl pH 7.4, 150 mM NaCl, 0.1 mM PMSF, 0.05% BSA) of the primary and orthogonal assays, 1 M Tris-HCl was prepared by dissolving 60.57 g Trizma-base (Mw 121.14 g/mol) (Sigma 93362-250G) in 500 mL MQ water, and the pH was adjusted to 7.4 using 4 M HCl. The solution was filtered with a 0.45 μm filter and stored at room temperature (RT). Then, 2 M NaCl stock was prepared by dissolving 29.22 g NaCl (Mw 58.44 g/mol) (Sigma S7653-250G) in 250 mL MQ water. The solution was filtered with a 0.45 μm filter and stored at RT. Next, 100 mM Phenylmethanesulfonylfluoride (PMSF) stock was prepared by dissolving 1 g PMSF (Mw 174.19 g/mol) (Sigma 78830-1G) in 57.4 mL isopropanol (Sigma I9516-500ML) and stored at 4 °C. A 10% Bovine Serum Albumin (BSA) stock solution was prepared by dissolving 2 g BSA (Mw 66.5 kDa) (Sigma A7030-50G), which was dissolved in 20 mL MQ water. The solution was filtered with a 0.45 μm filter, aliquoted, and stored at −20 °C. For the deselection assay buffer (50 mM Tris-HCl pH 7.4, 150 mM NaCl, 0.1 mM PMSF, 0.05% BSA, 10 μM ZnSO4), 1 mM ZnSO4 solution was prepared by dissolving 28.8 mg ZnSO4 (Mw 287.56 g/mol) (Sigma Z0251-100G) in 100 mL MQ water. The solution was filtered with a 0.45 μm filter and stored at RT. For the TSA assay buffer (50 mM Tris HCL, 150 mM NaCl, pH 7.4), stocks of 1 M Tris HCL and 2 M NaCl were prepared as described above.

[6] = 1536-well format, steady-state velocity, read-out: Km (substrate)

T1 sequence (Q9UIQ6 155-1025 limits assumed): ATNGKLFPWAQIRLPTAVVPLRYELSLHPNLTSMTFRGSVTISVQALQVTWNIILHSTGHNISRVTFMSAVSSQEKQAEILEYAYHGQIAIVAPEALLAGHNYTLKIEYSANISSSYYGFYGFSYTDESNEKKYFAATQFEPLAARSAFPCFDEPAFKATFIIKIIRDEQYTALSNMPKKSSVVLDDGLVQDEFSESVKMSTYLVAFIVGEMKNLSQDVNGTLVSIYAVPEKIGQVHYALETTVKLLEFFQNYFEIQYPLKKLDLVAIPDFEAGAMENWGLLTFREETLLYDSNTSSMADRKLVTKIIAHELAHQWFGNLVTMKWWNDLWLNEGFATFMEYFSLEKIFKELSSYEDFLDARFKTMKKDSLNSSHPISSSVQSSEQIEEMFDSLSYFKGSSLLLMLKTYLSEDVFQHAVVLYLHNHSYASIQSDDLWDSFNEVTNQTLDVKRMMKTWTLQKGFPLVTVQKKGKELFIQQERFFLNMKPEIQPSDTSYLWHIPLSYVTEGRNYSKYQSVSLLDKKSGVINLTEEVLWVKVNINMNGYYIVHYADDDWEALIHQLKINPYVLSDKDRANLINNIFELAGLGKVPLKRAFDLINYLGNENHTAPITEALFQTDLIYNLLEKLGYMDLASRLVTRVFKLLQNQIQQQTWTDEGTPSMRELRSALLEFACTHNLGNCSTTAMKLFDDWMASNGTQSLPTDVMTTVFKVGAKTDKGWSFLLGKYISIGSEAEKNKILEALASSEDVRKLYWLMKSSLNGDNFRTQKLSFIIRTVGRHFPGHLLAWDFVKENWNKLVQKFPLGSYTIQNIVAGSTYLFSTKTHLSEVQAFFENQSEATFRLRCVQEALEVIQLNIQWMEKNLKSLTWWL

| SMILES | IC50 (IRAP [1]; read-out: Fluorescence IC50) [µM] | LipE (IRAP [1]) | IC50 (IRAP [2]) [µM] | Enzyme Active [3] | Targets active [3] | Enzyme Active % [3] [%] | Targets Active % [3] [%] | ΔTm at 30 µM (IRAP [4]) [°C] | IC50 (IRAP [5]) [µM] | also measured |
| --- | --- | --- | --- | --- | --- | --- | --- | --- | --- | --- |
| O=C(NO)C(CS(=O)(=O)N1CCC(c2ccc(F)cc2Cl)CC1)C1CCOCC1 (stereo not shown) [QHL8] | 1.32 | 3.94 | 3.55 | 4 | 6 | 4.3 | 4.0 | 4.61 | 1.29 | – |
| O=C(Cc1ccccc1S(=O)(=O)N1CCc2ccccc2C1)NO [QHL1, 2-(2-((3,4-dihydroisoquinolin-2(1H)-yl)sulfonyl)phenyl)-N-hydroxyacetamide] | – | 4.85 | 0.871 | 2 | 7 | 2.1 | 4.7 | 6.77 | 0.316 | IC50 (IRAP [1]; read-out: Fluorescence pIC50 (converted)): 0.316 µM |
| Nc1nc2cc(C(=O)O)ccc2n1Cc1cc(F)cc(F)c1 [QHL34] | 3.89 | 3.88 | – | 1 | 2 | 1.3 | 1.4 | – | – | Fluorescence pIC50 (IRAP [1]): 5.41; Absorbance pIC50 (IRAP [2]): < 4.70; TSA (∆°C), thermal shift of IRAP (IRAP [4]): 0.3 °C; Fluorescence + Zn pIC50 (IRAP [5]): 5.39 |
| CC(C)c1cc(C(=O)N2CCc3n[nH]c(-c4cccs4)c3CC2)[nH]n1 [QHL19] | 2.82 | 1.83 | 16.2 | 4 | 6 | 9.5 | 7.9 | 0.3 | 2.95 | – |
| CCCCc1nc2ccn(Cc3cccc(C#N)c3)c(=O)c2n1Cc1cccc(C#N)c1 [QHL41] | 4.68 | 0.59 | – | 6 | 8 | 7.6 | 5.5 | – | – | Fluorescence pIC50 (IRAP [1]): 5.33; Absorbance pIC50 (IRAP [2]): 5.81; TSA (∆°C), thermal shift of IRAP (IRAP [4]): 0.44 °C; Fluorescence + Zn pIC50 (IRAP [5]): 5.11 |
| CC(C)[C@@H](CS(=O)(=O)N(C)Cc1sc2ccccc2c1Cl)C(=O)NO [QHL20] | 2.82 | 2.71 | 5.75 | 1 | 3 | 1.9 | 2.9 | 4.15 | 3.16 | – |
| Cc1cc(=O)oc2cc(NC(=O)[C@@H](N)CC(C)C)ccc12 [L-Leucine-7-amido-4-methylcoumarin, reference compound] | – | – | – | – | – | – | – | – | – | Km (IRAP [1]; [6]): 36.6 µM |
| O=S(=O)(Nc1cccc(-c2nnn[nH]2)c1)c1cc(Cl)c(Cl)cc1Cl [I, reference compound] | – | – | – | – | – | – | – | – | – | LogEC50 (best-fit) (IRAP [1]; 4 µl end volume, 30 min): -4.565; EC50 (IRAP [1]; 4 µl end volume, 30 min): 27.2 µM; LogEC50 (best-fit) (IRAP [1]; 4 µl end volume, 60 min): -4.541; EC50 (IRAP [1]; 4 µl end volume, 60 min): 28.8 µM; LogEC50 (best-fit) (IRAP [1]; 4 µl end volume, 90 min): -4.517; EC50 (IRAP [1]; 4 µl end volume, 90 min): 30.4 µM; LogEC50 (best-fit) (IRAP [1]; 4 µl end volume, 120 min): -4.5; EC50 (IRAP [1]; 4 µl end volume, 120 min): 31.6 µM; LogEC50 (best-fit) (IRAP [1]; 8 µl end volume, 30 min): -4.385; EC50 (IRAP [1]; 8 µl end volume, 30 min): 41.2 µM; LogEC50 (best-fit) (IRAP [1]; 8 µl end volume, 60 min): -4.449; EC50 (IRAP [1]; 8 µl end volume, 60 min): 35.6 µM; LogEC50 (best-fit) (IRAP [1]; 8 µl end volume, 90 min): -4.469; EC50 (IRAP [1]; 8 µl end volume, 90 min): 34 µM; LogEC50 (best-fit) (IRAP [1]; 8 µl end volume, 120 min): -4.427; EC50 (IRAP [1]; 8 µl end volume, 120 min): 37.4 µM; stabilization of the thermal melting temperature of IRAP (IRAP [4]; 10-point half-log concentration series): dose-dependent and saturable; IRAP Tm (IRAP [4]; compound at 400 µM): 69.05 ± 0.17 °C |
| CC(C)C[C@H](N)C(=O)Nc1ccc([N+](=O)[O-])cc1 [L-Leucine p-Nitroanilide, reference compound] | – | – | – | – | – | – | – | – | – | Km (IRAP [2]; [6]): 380 µM |
